Results on 1 substance are retold here after patent US12061143B2, “Methods for rapid determinations of antibiotic susceptibility phenotypes” (priority 2018, dated 2024).

Holding throughout (assay type): cell-based
The test system of assay [1] is E. coli strain Mu890. Briefly: FAST flow cytometry AST with PB-sQF, bacteria recovered from 10% human blood. On the procedure:
(§1) Varied counts of bacteria were mixed with human blood and diluted 1:9 (v/v) with bacterial growth medium to desired bacterial concentrations (<10 CFU/mL final solution) and plated to independently confirm CFU/mL blood. Saponin was immediately added and the samples shaken for 15 minutes to achieve selective blood cell lysis. After hemolysis, bacteria were spun down and washed with PBS. The pellets were resuspended in bacterial growth medium and incubated at 37° C. for 2 hours, followed by another 3-hour incubation with antibiotics at various fractions of the minimum inhibition concentration (MIC, as independently determined by microdilution from the pure starting culture, Table 1) for sensitive strains or at the CLSI MIC resistant breakpoints^(12) for the highly resistant strains. Changes in scattered light signals largely resulting from bacterial growth inhibition were monitored by flow cytometry, and the difference in the 2-D scatter histograms with and without antibiotic treatment was quantified with PB-sQF statistics.^(1) Using PB-sQF, distance was calculated for each antibiotic concentration relative to its own no-antibiotic control and expressed as “fold distance” relative to the 99% confidence limit distance between the no-antibiotic control and the sensitive breakpoint. This allowed comparison of fold distances among all samples as each is individually paired to its own control, as is each replicate.
(§2) To simulate a blood specimen from a patient with bacteremia, the isolates were grown, diluted to the desired CFU/mL in blood (ZenBio, Research Triangle Park, NC) and saponin was added to achieve the final diluted sample. Initial bacterial cultures were prepared using Luria-Bertani (LB) broth for (E. coli) or cation-adjusted Mueller-Hinton broth (CAMHB). The fresh bacterial cultures started from ˜0.05 optical density (OD) by inoculating a 6-mL fresh growth medium with overnight culture were grown in an incubator shaker (MaxQ 4000, Thermal Fisher Scientific, Waltham, MA) at 37° C. and 225 rpm. After the culture reached mid-log phase, bacteria were collected and diluted into ˜10 CFU/mL through serial 10-fold dilutions. Bacterial densities were determined by plating onto LB plates. The final 10-fold dilution was performed by adding 500 μL of 100 CFU/mL into 4500 μL of 10% human blood in medium.
(§3) A 2.5% (w/v) of saponin solution was prepared, sonicated (Branson 2510, Emerson, St. Louis, MO) for 20 minutes and spun down with a clinical centrifuge (Centrific Model 228, Fisher Scientific, Waltham, MA) for 4 minutes. The supernatant cleared of particulates was collected. 500 μL of 2.5% saponin was then added to the 5 mL of 10% human blood sample with ˜10 CFU/mL, described above and the mixtures were shaken at 300 rpm for 15 minutes at 37° C. After the saponin treatment, the bacteria were pelleted and washed with 2 mL of phosphate buffered saline (PBS) (Life Technologies, Carlsbad, CA) using a clinical centrifuge for 2 minutes. Bacterial growth medium (2.5 mL) was then added to the tube and incubated for 2 hours at 37° C. and 225 rpm.
(§4) After the 2-hour incubation, 500-μL aliquots of the suspension were added to each of 4 wells in a 12-well microtiter plate that contained 500 μL of growth medium with or without antibiotic at 2-fold of specified concentrations. The plate was then incubated at 37° C. for 3 hours. Bacteria were collected by centrifugation (Centrifuge 5417R, Eppendorf) and resuspended in 200 μL of PBS for flow cytometry detection. To ensure each clinical isolate was tested at its MIC values of the tested antibiotics, the initial bacterial cultures at the 1000 CFU/mL dilution were also tested for each experiment (FIGS. 4A-4F, 5A-5F, 7A-7F, 8A-8F, and 9A-9F), confirming that the antibiotic concentrations indeed inhibited bacterial growth.
(§5) Cytometric data were collected by BD LSRFortessa flow cytometer (Becton Dickinson, Franklin Lake, NY) equipped with a 100 mW, 488 nm laser for the scatter signal. […]
(In general: A flow cytometer gives signals particle by particle.)

Assay [2] has as its system K. pneumoniae strain Mu55. Described as above. The conditions noted are these: ~8 CFU/mL after 10-fold dilution. On the procedure:
as §1, §2, §3, §4, §5

Assay [3] concerns K. pneumoniae strain Mu670. The assay is described as above. The settings on record: ~9 CFU/mL after 10-fold dilution. On the procedure: as §1, §2, §3, §4, §5
Assay [4] deals with E. coli strain Mu14S. The description is as above. On the procedure: as §1, §2, §3, §4, §5
The subject of assay [5] is K. pneumoniae Mu55. Briefly: MIC by broth microdilution AST. On the procedure:
as §1
(§6) All clinical isolates (E. coli strains Mu14S and Mu890, K. pneumoniae strains Mu670 and Mu55, A. nosocomialis strains M2) were obtained from the Georgia Emerging Infection Program (GEIP). The MIC of each isolate was determined by a clinical microbiology laboratory using post blood culture automated AST and confirmed using broth microdilution in our laboratory. The MICs of each strain were measured to be as follows. For A. nosocomialis strain M2, 1 μg/mL tetracycline, 2 μg/mL gentamicin, and >1024 μg/mL ampicillin. For E. coli strain Mu890, 1 μg/mL tetracycline, 8 μg/mL gentamicin, and >1024 μg/mL ampicillin. For E. coli strain Mu14S, >64 μg/mL tetracycline, 8 μg/mL gentamicin, and >1024 μg/mL ampicillin. For K. pneumoniae strain Mu55, >64 μg/mL tetracycline, 1 μg/mL gentamicin, and >1024 μg/mL ampicillin. For K. pneumoniae strain Mu670, 2 μg/mL tetracycline, 4 μg/mL gentamicin, and >1024 μg/mL ampicillin.

In assay [6] the test system is K. pneumoniae Mu670. As to the kind of experiment: MIC by broth microdilution AST. On the procedure: as §1, §6
For assay [7], the system named is A. nosocomialis M2. As to the kind of experiment: MIC by broth microdilution AST. On the procedure:
as §1, §6

Assay [8] relates to E. coli Mu14S. As to the kind of experiment: MIC by broth microdilution AST. On the procedure: as §1, §6
In general terms: In broth dilution the organism is exposed to a series of concentrations in liquid medium.

For assay [9], the system named is E. coli Mu890. Briefly: MIC by broth microdilution AST. The settings on record: E. coli Mu890. On the procedure:
as §1, §6

The subject of assay [10] is A. nosocomialis strain M2. As to the kind of experiment: FAST flow cytometry AST with PB-sQF, bacteria recovered from 10% human blood. The conditions noted are these: M2 spiked in 10% human blood, assayed within 8 hrs of simulated blood draw.
Protocol: Varied counts of bacteria were mixed with human blood and diluted 1:9 (v/v) with bacterial growth medium to desired bacterial concentrations (<10 CFU/mL final solution) and plated to independently confirm CFU/mL blood. Saponin was immediately added and the samples shaken for 15 minutes to achieve selective blood cell lysis. After hemolysis, bacteria were spun down and washed with PBS. […] This allowed comparison of fold distances among all samples as each is individually paired to its own control, as is each replicate.
To simulate a blood specimen from a patient with bacteremia, the isolates were grown, diluted to the desired CFU/mL in blood (ZenBio, Research Triangle Park, NC) and saponin was added to achieve the final diluted sample. Initial bacterial cultures were prepared using Luria-Bertani (LB) broth for (E. coli) or cation-adjusted Mueller-Hinton broth (CAMHB). The fresh bacterial cultures started from ˜0.05 optical density (OD) by inoculating a 6-mL fresh growth medium with overnight culture were grown in an incubator shaker (MaxQ 4000, Thermal Fisher Scientific, Waltham, MA) at 37° C. and 225 rpm. […] Bacterial densities were determined by plating onto LB plates. […]
Cytometric data were collected by BD LSRFortessa flow cytometer (Becton Dickinson, Franklin Lake, NY) equipped with a 100 mW, 488 nm laser for the scatter signal. […] Data were recorded with FACSDiVa provided by BD. […]
[11] abbreviates: class according to 2016 CLSI handbook.
Setting [12] is: microdilution from pure culture.

Take Gentamicin: the “PB-sQF fold distance-based FAST result” value in [1] (Mu890, beyond the 99% confidence level) is “effective”. Besides, the “FAST antibiotic-induced scatter signal change” value in assay [1] (Mu890 treated at the MIC, 3-hr incubation, vs paired no-antibiotic control) is “effective growth inhibition”; in [4] (Mu14S treated at the MIC), “exhibits growth inhibition”. The “PB-sQF FAST result” value in [2] and in assay [3] was “appropriate” in each case. Further, in [4] (Mu14S, 1×MIC, triplicate data), the “PB-sQF fold distance average versus the paired-control” value is listed as “clear differences”. Moreover, the “MIC (S/I/R)” value in assay [5] (setting [11]) is reported as “(S)”; in assay [6] (setting [11]) it was “(S)”; in [7] (setting [11]) it was “(S)”; in assay [8] (setting [11]), “(I)”; in [9] (setting [11]) it was “(I)”. Besides, the MIC (as a rule, the lowest concentration that inhibits growth of the organism) in assay [5] (setting [12]) stood at 1 µg/mL; in [6] (setting [12]) it was 4 µg/mL; in [7] (setting [12]), 2 µg/mL; in assay [8] (setting [12]) it was 8 µg/mL; in [9] (setting [12]) it was 8 µg/mL. In addition, in assay [10], the “PB-sQF FAST susceptibility” value is “susceptible”.
